Series [1] deals with T1, Ramos cells bearing cell-surface VLA-4 (α4β1 integrin) binding to VCAM-1 (Homo sapiens, UniProt P05556+P13612).
T1 construct: Ramos cells bearing cell-surface VLA-4; endogenous in cells; host or cells: Ramos cells (VLA-4); VCAM-1 made in CHO cells
Briefly: Ramos (VLA-4) / VCAM-1 Cell-Based Screening Assay (cell adhesion). The following applies: Calcein-AM labelled Ramos cells, VCAM-1 coated plates. The protocol: 2. Ramos (VLA-4) / VCAM-1 Cell-Based Screening Assay Protocol
Soluble recombinant human VCAM-1 (mixture of 5- and 7-Ig domain) was purified from CHO cell culture media by immunoaffinity chromatography and maintained in a solution containing 0.1 M Tris-glycine (pH 7.5), 0.1 M NaCl, 5 mM EDTA, 1 mM PMSF, […] NaN3 and 10 μg/mL leupeptin. Calcein-AM was purchased from Molecular Probes Inc.
VLA-4 (α4β1 integrin) antagonist activity, defined as ability to compete with cell-surface VLA-4 for binding to immobilized VCAM-1, was quantitated using a Ramos-VCAM-1 cell adhesion assay. Ramos cells bearing cell-surface VLA-4, were labeled with a fluorescent dye (Calcein-AM) and allowed to bind VCAM-1 in the presence or absence of test compounds. A reduction in fluorescence intensity associated with adherent cells (% inhibition) reflected competitive inhibition of VLA-4 mediated cell adhesion by the test compound. Initially, this entailed coating 96 well plates (Nunc Maxisorp) with recombinant human VCAM-1 (100 ng in 100 μl PBS), sealing each plate and allowing the plates to stand at 4° C. for ^˜18 hr. The VCAM-coated plates were subsequently washed twice with 0.05% Tween-20 in PBS, and then blocked for 1 hr (room temperature) with 200 μl of Blocking Buffer (1% BSA/0.02% thimerosal) to reduce non-specific binding. Following the incubation with Blocking Buffer, plates were inverted, blotted and the remaining buffer aspirated. Each plate was then washed with 300 μl PBS, inverted and the remaining PBS aspirated.
Test compounds were dissolved in 100% DMSO and then diluted 1:25 in VCAM Cell Adhesion Assay Buffer (4 mM CaCl2, 4 mM MgCl2 in 50 mM TRIS-HCl, pH 7.5) (final DMSO=4%). A series of eight 1:4 dilutions were performed for each compound (general concentration range of 1 nM-12,500 nM). 100 μl/well of each dilution was added to the VCAM-coated plates, followed by 100 μl of Ramos cells (200,000 cells/well in 1% BSA/PBS). Plates containing test compounds and Ramos cells were allowed to incubate for 45 min at room temperature, after which 165 μl/well PBS was added. Plates were inverted to remove non-adherent cells, blotted and 300 μl/well PBS added. Plates were again inverted, blotted and the remaining buffer gently aspirated. 100 μl Lysis Buffer (0.1% SDS in 50 mM TRIS-HCl, pH 8.5) was added to each well and agitated for 2 min on a rotary shaking platform. The plates were then read for fluorescence intensity on a Cytofluor 2300 (Millipore) fluorescence measurement system (excitation=485 nm, emission=530 nm).

Series [2] addresses T2, VLA-4 (α4β1 integrin) binding to immobilized VCAM-1 (Homo sapiens, UniProt P05556+P13612).
T2 construct: followed by 10 μl of Ramos cell-derived VLA-4; endogenous in cells; host or cells: Ramos cells (VLA-4 prepared from them)
Briefly: VLA-4/VCAM-1 Screening Assay (solid-phase dual antibody ELISA). The conditions noted are these: Ramos cell-derived VLA-4, recombinant human VCAM-1 coated plates. How it is done:
1. VLA-4/VCAM-1 Screening Assay
VLA-4 antagonist activity, defined as ability to compete for binding to immobilized VCAM-1, was quantitated using a solid-phase, dual antibody ELISA. VLA-4 (α4β1 integrin) bound to VCAM-1 is detected by a complex of anti-integrin β1 antibody: HRP-conjugated anti-mouse IgG: chromogenic substrate (K-Blue). Initially, this entailed coating 96 well plates (Nunc Maxisorp) with recombinant human VCAM-1 (0.4 μg in 100 μl PBS), sealing each plate and then allowing the plates to stand at 4° C. for ^˜18 hr. […] On the day of assay, all plates are washed twice with VCAM Assay Buffer (200 μl/well of 50 mM Tris-HCl, 100 mM NaCl, 1 mM MnCl2, 0.05% Tween 20; pH 7.4). Test compounds are dissolved in 100% DMSO and then diluted 1:20 in VCAM Assay Buffer supplemented with 1 mg/mL BSA (i.e., final DMSO=5%). A series of 1:4 dilutions are performed to achieve a concentration range of 0.005 nM−1.563 μM for each test compound. 100 μl per well of each dilution is added to the VCAM-coated plates, followed by 10 μl of Ramos cell-derived VLA-4. These plates are sequentially mixed on a platform shaker for 1 min, incubated for 2 hr at 37° C., and then washed four times with 200 μl/well VCAM Assay Buffer. 100 μl of mouse anti-human integrin β1 antibody is added to each well (0.6 μg/mL in VCAM Assay Buffer+1 mg/mL BSA) and allowed to incubate for 1 hr at 37° C. At the conclusion of this incubation period, all plates are washed four times with VCAM Assay Buffer (200 μl/well). A corresponding second antibody, HRP-conjugated goat anti-mouse IgG (100 μl per well @ 1:800 dilution in VCAM Assay Buffer+1 mg/mL BSA), is then added to each well, followed by a 1 hr incubation at room temperature and concluded by three washes (200 μl/well) with VCAM Assay Buffer. Color development is initiated by addition of 100 μl K-Blue per well (15 min incubation, room temp) and terminated by addition of 100 μl Red Stop Buffer per well. All plates are then read in a UV/V is spectrophotometer at 650 nM. Results are calculated as % inhibition of total binding (i.e., VLA-4+VCAM-1 in the absence of test compound).
(In general: ELISA stands for enzyme-linked immunosorbent assay.)

Series [3] relates to cynomolgus monkeys (Macaca fascicularis) challenged with Ascaris suum antigen. As to the kind of experiment: Acute airway inflammation in the atopic primate. In kind it is in vivo. The conditions noted are these: p.o., 2 hours prior to antigen challenge; lavage at 24 hour after A. suum antigen challenge. The protocol: Example 4. Acute airway inflammation in the atopic primate.
Airway inflammation in the monkey was determined using a modification of the protocol described by Turner et al. (Turner et al., 1994). Adult male cynomolgus monkeys (Macaca fascicularis, Hazelton Labs, Denver, Pa.) weighing between 3.6-5.8 kg were used in these studies.
On the day of each experiment the animals were anesthetized with ketamine hydrochloride, 12 mg/kg, and xylazine, 0.5 mg/kg, intubated with a cuffed endotracheal tube (3 mm, Mallinckrodt Medical, St. Louis, Mo.), then seated in an upright position in a specially designed Plexiglass chair (Plas-Labs, Lansing, Mich.). The endotracheal tube was connected to a heated Fleisch pneumotachograph. Airflow was measured via a Validyn differential pressure transducer (DP 45-24) that was attached to the pneumotachograph. Transpulmonary pressure was measured via a second Validyne transducer (DP 45-24) connected between a sidearm of the tracheal cannula and a 18-gauge intrapleural needle inserted in the intercostal space located below the left nipple. […]
Airway inflammation was induced by exposing the animal to an aerosol of A. Suum extract for 60 sec. […] Airway inflammation was assessed by inserting a pediatric bronchoscope into the airway lumen down to about the 4 or 5th generation bronchi and gently lavaging with 3 X 2 ml aliquots of sterile Hanks Balanced Salt Solution. […]

Where a name gives a salt, the structure may show the parent alone.

T2 sequence (P13612 34-1032): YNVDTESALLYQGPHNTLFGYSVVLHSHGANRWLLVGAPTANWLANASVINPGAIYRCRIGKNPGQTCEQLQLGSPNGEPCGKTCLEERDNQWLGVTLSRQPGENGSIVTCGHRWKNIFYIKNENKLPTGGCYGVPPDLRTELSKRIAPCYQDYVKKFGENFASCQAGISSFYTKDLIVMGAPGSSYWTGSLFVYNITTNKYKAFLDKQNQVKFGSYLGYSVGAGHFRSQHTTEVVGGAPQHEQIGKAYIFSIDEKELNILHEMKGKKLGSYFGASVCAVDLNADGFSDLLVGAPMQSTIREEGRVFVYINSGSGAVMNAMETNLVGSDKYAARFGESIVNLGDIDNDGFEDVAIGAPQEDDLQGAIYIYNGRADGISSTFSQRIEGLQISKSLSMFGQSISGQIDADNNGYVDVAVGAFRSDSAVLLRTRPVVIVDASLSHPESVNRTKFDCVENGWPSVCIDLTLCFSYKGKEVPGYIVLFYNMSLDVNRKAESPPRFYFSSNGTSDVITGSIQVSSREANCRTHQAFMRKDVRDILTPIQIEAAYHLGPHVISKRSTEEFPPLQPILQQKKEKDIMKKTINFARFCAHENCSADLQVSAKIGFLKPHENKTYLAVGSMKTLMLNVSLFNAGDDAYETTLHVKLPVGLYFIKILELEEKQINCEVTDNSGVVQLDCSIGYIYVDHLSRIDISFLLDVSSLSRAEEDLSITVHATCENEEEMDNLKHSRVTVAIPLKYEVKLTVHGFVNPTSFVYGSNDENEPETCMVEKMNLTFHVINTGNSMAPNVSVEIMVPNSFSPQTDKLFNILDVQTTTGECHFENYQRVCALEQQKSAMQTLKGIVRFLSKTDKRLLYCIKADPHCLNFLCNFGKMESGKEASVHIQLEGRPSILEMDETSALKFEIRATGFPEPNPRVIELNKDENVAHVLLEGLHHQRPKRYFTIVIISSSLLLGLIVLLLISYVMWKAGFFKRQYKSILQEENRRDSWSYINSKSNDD
T2 sequence (P05556 21-798): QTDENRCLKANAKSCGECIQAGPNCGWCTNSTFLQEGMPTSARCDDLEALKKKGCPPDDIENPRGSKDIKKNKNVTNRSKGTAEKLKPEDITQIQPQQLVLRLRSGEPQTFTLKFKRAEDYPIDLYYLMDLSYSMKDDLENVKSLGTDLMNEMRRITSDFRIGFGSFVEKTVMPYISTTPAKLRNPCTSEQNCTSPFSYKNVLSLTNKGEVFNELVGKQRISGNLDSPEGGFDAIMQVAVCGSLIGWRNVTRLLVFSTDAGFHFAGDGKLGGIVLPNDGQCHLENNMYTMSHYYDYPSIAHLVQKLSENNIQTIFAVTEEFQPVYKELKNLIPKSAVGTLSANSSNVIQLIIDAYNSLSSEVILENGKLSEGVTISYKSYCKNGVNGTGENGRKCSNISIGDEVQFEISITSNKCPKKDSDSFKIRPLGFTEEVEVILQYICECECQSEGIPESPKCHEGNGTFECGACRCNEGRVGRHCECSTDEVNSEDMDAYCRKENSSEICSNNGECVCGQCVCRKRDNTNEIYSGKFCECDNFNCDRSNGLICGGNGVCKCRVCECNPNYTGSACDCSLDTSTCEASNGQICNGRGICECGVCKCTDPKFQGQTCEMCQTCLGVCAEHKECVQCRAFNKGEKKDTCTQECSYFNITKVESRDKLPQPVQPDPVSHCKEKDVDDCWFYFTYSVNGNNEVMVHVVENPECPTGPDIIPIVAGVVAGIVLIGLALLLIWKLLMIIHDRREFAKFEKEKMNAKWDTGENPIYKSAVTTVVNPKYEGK
T1 sequence (P13612 34-1032): as the sequence (P13612 34-1032) above
T1 sequence (P05556 21-798): as the sequence (P05556 21-798) above

Turning to `CS(=O)(=O)CCCCC1(C(=S)N[C@@H](Cc2ccc(NC(=O)c3c(Cl)cccc3Cl)cc2)C(=O)O)CCC1` [Example 62, 4-[[(2,6-dichlorophenyl)carbonyl]amino]-N-[[1-[4-(methylsulfonyl)-butyl]cyclobutyl]thioxomethyl]-L-phenylalanine], the IC50 in series [1] was 8 nM.

On to `CCc1cccc(C)c1C(=S)N[C@@H](Cc1ccc(N2C(=O)[C@@H](Cc3cccnc3)N(C(C)=O)[C@@H]2c2ccccc2)cc1)C(=O)O` [Example 29, 4-[(2S,4R)-3-acetyl-5-oxo-2-phenyl-4-[(pyridin-3-yl)methyl]imidazolidin-1-yl]-N-[(2-ethyl-6-methylphenyl)thioxomethyl]-L-phenylalanine], for which, in series [1], the IC50 is 220 nM.

On to `CNC(=O)NCCC1(C(=S)N[C@@H](Cc2ccc(NC(=O)c3c(Cl)cccc3Cl)cc2)C(=O)O)CCCC1` [Example 11], for which the values for the IC50 in series [2] and in series [1] were 5.6 nM and 42.5 nM, respectively.

`Cc1ccnc(C)c1C(=O)Nc1ccc(C[C@H](NC(=S)C2(CCCCS(C)(=O)=O)CCCC2)C(=O)O)cc1` [Example 53, 4-[[(2,4-dimethylpyridin-3-yl)carbonyl]amino]-N-[[1-[4-(methylsulfonyl)butyl]-cyclopentyllthioxomethyl]-L-phenylalaninetrifluoroacetic acid salt]: the IC50 in series [1] was 148 nM.

With `COCCC1(C(=S)N[C@@H](Cc2ccc(NC(=O)c3c(Cl)cccc3Cl)cc2)C(=O)O)CCCC1` [Example 3, 4-[[(2,6-dichlorophenyl)carbonyl]amino]-N-[[1-(2-methoxy-ethyl)cyclopentyl]thioxomethyl]-L-phenylalanine], the half-inhibitory concentration (IC50) in series [2] was 4 nM; in series [1], 66.5 nM.

In turn, `CS(=O)(=O)CCCCC1(C(=S)N[C@@H](Cc2ccc(NC(=O)c3c(Cl)cccc3Cl)cc2)C(=O)O)CCCC1` [Example 50, 4-[[(2,6-dichlorophenyl)carbonyl]amino]-N-[[1-[4-(methylsulfonyl)butyl]cyclopentyl]thioxomethyl]-L-phenylalanine] had a melting point of 200 to 202 °C. The half-inhibitory concentration (IC50) in series [1] is 30 nM.

For `O=C(Nc1ccc(C[C@H](NC(=S)c2ccccc2C(F)(F)F)C(=O)O)cc1)c1c(Cl)cccc1Cl` [Example 39, 4-[[(2,6-dichlorophenyl)carbonyl]amino]-N-[[2-(trifluoromethyl)phenyl]thioxomethyl]-L-phenylalanine], the IC50 in series [1] was 784 nM.

With `Cc1cc(C(F)(F)F)c(C(=O)Nc2ccc(C[C@H](NC(=S)C3(CCCCS(C)(=O)=O)CCC3)C(=O)O)cc2)c(C)n1` [Example 84], the IC50 in series [1] was 5.5 nM.

As to `Cc1cccc(Cl)c1C(=S)N[C@@H](Cc1ccc(NC(=O)c2c(Cl)cccc2Cl)cc1)C(=O)O` [Example 18, 4-[[(2,6-dichlorophenyl)carbonyl]amino]-N-[(2-chloro-6-methylphenyl)thioxomethyl]-L-phenylalanine], the IC50 in series [2] is 0.47 nM; in series [1] it was 60 nM.

Regarding `CS(=O)(=O)CCCC1(C(=S)N[C@@H](Cc2ccc(NC(=O)c3c(Cl)cccc3Cl)cc2)C(=O)O)CCC1` [Example 78, 4-[[(2,6-dichlorophenyl)carbonyl]amino]-N-[[1-[3-(methylsulfonyl)propyl]cyclobutyl]thioxomethyl]-L-phenylalanine], the concentration for half-maximal inhibition (IC50) in series [1] is 341 nM.

In the case of `O=C(Nc1ccc(C[C@H](NC(=S)c2ccccc2F)C(=O)O)cc1)c1c(Cl)cccc1Cl` [Example 34, 4-[[(2,6-dichlorophenyl)carbonyl]amino]-N-[(2-fluorophenyl)thioxomethyl]-L-phenylalanine], the IC50 in series [1] was 4180 nM.

Take `CC(=O)NCCC1(C(=S)N[C@@H](Cc2ccc(NC(=O)c3c(Cl)cccc3Cl)cc2)C(=O)O)CCCC1` [Example 10, N-[[1-[2-(acetylamino)ethyl]cyclopentyl]thioxomethyl]-4-[[(2,6-dichlorophenyl)carbonyl]amino]-L-phenylalanine]: the IC50 in series [2] is 1.5 nM; in series [1], 33 nM.

With `COCCC1(C(=S)N[C@@H](Cc2ccc([N+](=O)[O-])cc2)C(=O)OC)CCCC1` [Example 1, N-[[1-(2-methoxyethyl)cyclopentyl]thioxomethyl]-4-nitro-L-phenylalanine methyl ester], the “number and percent of inflammatory cells present in the lavage fluid relative to vehicle treated control animals” value in series [3] is reported as “significant decrease”.

Regarding `CSCCCC1(C(=S)N[C@@H](Cc2ccc(NC(=O)c3c(Cl)cccc3Cl)cc2)C(=O)O)CCC1` [Example 71, 4-[[(2,6-dichlorophenyl)carbonyl]amino]-N-[[1-[3-(methylthio)propyl]cyclobutyl]-thioxomethyl]-L-phenylalanine], the melting point is 186 to 188 °C. For the same compound, the IC50 in series [1] is 926 nM.

In the case of `CCc1cccc(C)c1C(=S)N[C@@H](Cc1ccc(NC(=O)c2c(Cl)cccc2Cl)cc1)C(=O)O` [Example 25, 4-[[(2,6-dichlorophenyl)carbonyl]amino]-N-[(2-ethyl-6-methylphenyl)thioxomethyl]-L-phenylalanine], the half-inhibitory concentration (IC50) in series [2] was 6 nM; in series [1] it was 101 nM.

Usually IC50 stands for the point on the concentration scale where inhibition reaches its midpoint. A word on the melting point: it is the temperature, or range, at which the solid turns liquid.

Source of the values: US6479666B2, “Phenyl-keto-imidazolidine thioamide derivatives” (Hoffman-La Roche Inc., priority 2001, dated 2002).
